In ChEMBL document CHEMBL1201862, “PubChem BioAssay data set” (2004):
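Growth conditions: 96-well plates. Treatment: test compound, 48 hours, 5 concentrations. Analysis: linear interpolation between bracketing concentrations; unreached endpoints set to highest concentration. Abbreviation: GI50, concentration required for 50% inhibition of growth.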 Active and inactive are the calls of the source. No stated cut-off is given here; in the data, active = GI50 up to about 1.1 µM and inactive = higher.

Experiments:
Test in all cases: NCI tumour cell line growth inhibition, 48 h
[1] = system: UACC-257
[2] = system: UACC-62
[3] = system: SK-MEL-2
[4] = system: NCI-H522
[5] = system: HT-29
[6] = system: SK-MEL-5
[7] = system: Malme-3M
[8] = system: SK-OV-3
[9] = system: SK-MEL-28
[10] = system: MOLT-4
[11] = system: HCT-15
[12] = system: SF-295
[13] = system: OVCAR-4
[14] = system: SN12C
[15] = system: HOP-92
[16] = system: NCI-H226
[17] = system: SF-268
[18] = system: ACHN
[19] = system: 786-0

Compound	GI50 [1]	GI50 [2]	GI50 [3]	GI50 [4]	GI50 [5]	GI50 [6]	GI50 [7]	GI50 [8]	GI50 [9]	GI50 [10]	GI50 [11] [µM]	GI50 [12]	GI50 [13]	GI50 [14]	GI50 [15]	GI50 [16]	GI50 [17]	GI50 [18]	GI50 [19]
COc1nc(O)c(N)c(NC2OC(CO)C(O)C(O)C2O)n1 (configuration not stated)	> 100 µM (inactive)	> 100 µM (inactive)	> 100 µM (inactive)	> 100 µM (inactive)	> 100 µM (inactive)	> 100 µM (inactive)	> 100 µM (inactive)	> 100 µM (inactive)	> 100 µM (inactive)	> 100 µM (inactive)	> 100	> 100 µM (inactive)	> 100 µM (inactive)	> 100 µM (inactive)	> 100 µM (inactive)	> 31.6 µM (inactive)	> 100 µM (inactive)		
CCC(C(C)N1CC(=O)NC(=O)C1)N1CC(=O)NC(=O)C1 (configuration not stated)	> 100 µM (inactive)	> 100 µM (inactive)	> 100 µM (inactive)	5.65 µM (inactive)	62.1 µM (inactive)	12.5 µM (inactive)	13.4 µM (inactive)	> 100 µM (inactive)	> 100 µM (inactive)	0.69 µM (active)	> 49.7	> 100 µM (inactive)	> 100 µM (inactive)	6.27 µM (inactive)	> 100 µM (inactive)	16.1 µM (inactive)	> 87.9 µM (inactive)		
COc1ccccc1C1C(C(=O)O)=C(CO)Oc2cc3c(cc21)OCO3 (configuration not stated)		> 100 µM (inactive)	> 100 µM (inactive)	> 100 µM (inactive)	> 100 µM (inactive)	> 100 µM (inactive)	> 100 µM (inactive)	> 100 µM (inactive)	> 100 µM (inactive)	> 100 µM (inactive)	> 100	> 100 µM (inactive)		> 100 µM (inactive)	> 100 µM (inactive)	> 100 µM (inactive)	> 100 µM (inactive)	> 100 µM (inactive)	
CCCCSCC(NC(=O)/C=C/c1c(C)[nH]c(=O)[nH]c1=O)C(=O)OC (configuration not stated)	81.7 µM (inactive)	51.9 µM (inactive)	25.2 µM (inactive)	14.9 µM (inactive)	102 µM (inactive)	64.9 µM (inactive)	15.7 µM (inactive)	45.4 µM (inactive)	75 µM (inactive)	50.1 µM (inactive)	148	101 µM (inactive)	13.8 µM (inactive)	37.8 µM (inactive)	36.1 µM (inactive)	43.9 µM (inactive)	23 µM (inactive)		
CCOC(=O)C1=C(Nc2ccccc2)OC/C1=N\NC(=O)Cc1ccccc1	> 50 µM (inactive)	> 50 µM (inactive)	> 50 µM (inactive)	> 50 µM (inactive)	> 50 µM (inactive)	> 50 µM (inactive)	> 50 µM (inactive)	> 50 µM (inactive)	> 50 µM (inactive)	> 50 µM (inactive)		> 50 µM (inactive)	> 50 µM (inactive)	> 50 µM (inactive)	> 50 µM (inactive)	> 50 µM (inactive)	> 50 µM (inactive)		> 50 µM (inactive)
Cc1cc(C(C)(C)C)cc(Cc2cc(C(C)(C)C)cc(Cc3cc(C(C)(C)C)cc(C)c3O)c2O)c1O	8.45 µM (inactive)	6.84 µM (inactive)	10.4 µM (inactive)	3.71 µM (inactive)	11.7 µM (inactive)	10 µM (inactive)	10.7 µM (inactive)	14.1 µM (inactive)		3.04 µM (inactive)	11.9	16 µM (inactive)	7.5 µM (inactive)	7.28 µM (inactive)	2.94 µM (inactive)	12.1 µM (inactive)	2.89 µM (inactive)		5.64 µM (inactive)
CCCCN(CCCC)C(=O)C(=O)C(C#N)c1ccc(C)cc1 (configuration not stated)	> 100 µM (inactive)	> 100 µM (inactive)	> 100 µM (inactive)	> 100 µM (inactive)	> 100 µM (inactive)	> 100 µM (inactive)	> 100 µM (inactive)		> 100 µM (inactive)	> 100 µM (inactive)	> 100	> 100 µM (inactive)	> 100 µM (inactive)	> 100 µM (inactive)	> 100 µM (inactive)	> 100 µM (inactive)	> 100 µM (inactive)	> 100 µM (inactive)	> 100 µM (inactive)
COC1=CC(=O)c2ccccc2C1(CCC=C(C)C)C1=NC(C)(C)CO1 (configuration not stated)	54.6 µM (inactive)	> 100 µM (inactive)	83.6 µM (inactive)	42.4 µM (inactive)	81.8 µM (inactive)	> 100 µM (inactive)	78.7 µM (inactive)	86.5 µM (inactive)	> 100 µM (inactive)	31.7 µM (inactive)	61.1	55.5 µM (inactive)	71.9 µM (inactive)	94.6 µM (inactive)	99.3 µM (inactive)	> 100 µM (inactive)	> 100 µM (inactive)	6.62 µM (inactive)	> 100 µM (inactive)
CCCc1c(C(=O)OCC)[nH]c(-c2ccc(-c3[nH]c(C(=O)OCC)c(CCC)c3C(=O)OCC)o2)c1C(=O)OCC	> 100 µM (inactive)	> 100 µM (inactive)	> 100 µM (inactive)	> 100 µM (inactive)	> 100 µM (inactive)	> 100 µM (inactive)	> 100 µM (inactive)	> 100 µM (inactive)	> 100 µM (inactive)	> 100 µM (inactive)	> 100	> 100 µM (inactive)	> 100 µM (inactive)	> 100 µM (inactive)	> 100 µM (inactive)	> 100 µM (inactive)	> 100 µM (inactive)	> 100 µM (inactive)	> 100 µM (inactive)
N=S(c1ccccc1[N+](=O)[O-])c1ccccc1[N+](=O)[O-]	2.54 µM (inactive)	4.34 µM (inactive)	4.84 µM (inactive)	0.561 µM (active)		3.2 µM (inactive)	3.26 µM (inactive)	6.27 µM (inactive)	3.7 µM (inactive)	2.61 µM (inactive)	1.62		0.553 µM (active)	1.72 µM (inactive)	1.98 µM (inactive)	5.6 µM (inactive)	2.37 µM (inactive)	1.77 µM (inactive)	1.95 µM (inactive)
CC1(C)CC23C4COC(=O)C2CCC1C3CC4=O (configuration not stated)	9.59 µM (inactive)	10.5 µM (inactive)	14.5 µM (inactive)	3.32 µM (inactive)	22.9 µM (inactive)	9.86 µM (inactive)	7.21 µM (inactive)	39.3 µM (inactive)	6.12 µM (inactive)	5.87 µM (inactive)	6.52	19.8 µM (inactive)	15.2 µM (inactive)	15.8 µM (inactive)	8.26 µM (inactive)	6.59 µM (inactive)	10.6 µM (inactive)		
Cc1ccc2c(c1)C1(OC(=O)c3ccccc31)c1ccc(F)cc1O2 (configuration not stated)	31 µM (inactive)	70.6 µM (inactive)	43.3 µM (inactive)	23.9 µM (inactive)	39.3 µM (inactive)	32.7 µM (inactive)	67.8 µM (inactive)	> 100 µM (inactive)		20.3 µM (inactive)			49.8 µM (inactive)	> 100 µM (inactive)	16.1 µM (inactive)	18.7 µM (inactive)	68.4 µM (inactive)		77.6 µM (inactive)
CC(C)(C)C1=NO[C@H]2[C@@H](NC(=O)c3ccccc3)CC[C@@H]12	> 100 µM (inactive)	> 100 µM (inactive)		> 100 µM (inactive)	> 100 µM (inactive)	> 100 µM (inactive)	> 100 µM (inactive)	> 100 µM (inactive)	> 100 µM (inactive)	> 100 µM (inactive)	> 100	> 100 µM (inactive)	> 100 µM (inactive)	> 100 µM (inactive)	98.2 µM (inactive)	> 100 µM (inactive)	> 100 µM (inactive)	> 100 µM (inactive)	> 100 µM (inactive)
CC(=O)OC(C)(C)C[N+](=O)[O-]	> 100 µM (inactive)		> 100 µM (inactive)	63.4 µM (inactive)	> 100 µM (inactive)		> 100 µM (inactive)	> 100 µM (inactive)	> 100 µM (inactive)	> 100 µM (inactive)	> 100	> 100 µM (inactive)	20 µM (inactive)	> 100 µM (inactive)	> 100 µM (inactive)	> 100 µM (inactive)	> 100 µM (inactive)	> 100 µM (inactive)	> 100 µM (inactive)
Cc1ccc(S(=O)(=O)NC(=O)Nc2nc(Cl)cc(Cl)n2)cc1	19.2 µM (inactive)	> 100 µM (inactive)	> 100 µM (inactive)	5.89 µM (inactive)		> 100 µM (inactive)	> 100 µM (inactive)	> 100 µM (inactive)	> 100 µM (inactive)	57.7 µM (inactive)		> 100 µM (inactive)	> 100 µM (inactive)	> 100 µM (inactive)	99.3 µM (inactive)	> 100 µM (inactive)	> 100 µM (inactive)	> 100 µM (inactive)	> 100 µM (inactive)
[O-][n+]1ccccc1S [PYRITHIONE ZINC]	2.09 µM (inactive)	0.604 µM (active)	1.49 µM (inactive)	0.107 µM (active)	0.176 µM (active)	1.22 µM (inactive)	2.45 µM (inactive)	17.4 µM (inactive)	1.97 µM (inactive)	0.0973 µM (active)	0.577	4.46 µM (inactive)	0.542 µM (active)	1.87 µM (inactive)	3.24 µM (inactive)	10.2 µM (inactive)	1.03 µM (active)	3.21 µM (inactive)	0.343 µM (active)
